Measurements published in the supplement of paper PMC4862054.

Tests used:
CAL-148 = experiment: normalised viability (% of control), CellTiter-Blue; higher = more viable cells (about 100 = DMSO control); conditions: incubation time: 72 h
Protocol: (§1)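 DSRT, CellTiter-Blue viability, 72 h incubation. Signal is normalised to DMSO and benzethonium chloride controls. Value is the normalised response at dose 9.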

CAL-51 [1] = experiment: as above; conditions: incubation time: 72 h
Protocol: as §1

CAL-85-1 = experiment: as above; conditions: incubation time: 72 h
Protocol: as §1

DU-4475 [2] = experiment: as above; conditions: incubation time: 72 h
Protocol: as §1

HDQ-P1 = experiment: as above; conditions: incubation time: 72 h
Protocol: as §1

MDA-MB-453 = experiment: as above; conditions: incubation time: 72 h
Protocol: as §1

HCC1599 = conditions: 72 h
In short: (§2)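 Viability of breast cancer cell lines was measured with CellTiter-Blue after 72 h of incubation on compound-loaded 384-well plates. Cells were seeded in 20 µl onto compound dissolved in 5 µl medium, and 2.5 µl reagent was added for 2 h at 37 °C before reading at 560/590 nm. EC50 was fitted from percent-inhibition dose-response data censored at the highest concentration, normalised per plate to vehicle and a positive kill control, with zero drug sensitivity score rows dropped.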

MFM-223 = conditions: 72 h
In short: as §2

BT-474 = experiment: drug sensitivity score (DSS), CellTiter-Glo (DSS (AUC-based score)); higher = stronger drug effect (viability inhibition or cytotoxicity); extreme values may be limits of the assay; conditions: incubation time: 72 h
In short: (§3)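 Breast cancer cell lines were seeded in 20 µl suspension into 384-well plates already holding compound and incubated for 72 h. Each compound was tested at 5 concentrations in 10-fold steps across its own 10,000-fold range. Plates were normalised to 0.1 % DMSO and a positive kill control after CellTox Green and then CellTiter-Glo readings. The area under the fitted dose-response curve served as the basis for the drug sensitivity score.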

CAL-51 [3] = experiment: as above; conditions: incubation time: 72 h
In short: as §3

DU-4475 [4] = experiment: as above; conditions: incubation time: 72 h
In short: as §3

SK-BR-3 = experiment: as above; conditions: incubation time: 72 h
In short: as §3

MDA-MB-468 = conditions: 72 h
In short: as §2

Row | EC50, CellTiter-Blue viability (HCC1599) [nM] | Compound | normalised viability (CAL-148) [%] | normalised viability (CAL-51 [1]) [%] | normalised viability (CAL-85-1) [%] | normalised viability (DU-4475 [2]) [%] | normalised viability (HDQ-P1) [%] | normalised viability (MDA-MB-453) [%] | EC50, CellTiter-Blue viability (MFM-223) [nM] | drug sensitivity score (BT-474) | drug sensitivity score (CAL-51 [3]) | drug sensitivity score (DU-4475 [4]) | drug sensitivity score (SK-BR-3) | EC50, CellTiter-Blue viability (MDA-MB-468) [nM]
1 |  | COc1ccc(S(=O)(=O)Nc2cccnc2Nc2ccc(O)cc2)cc1 [ABT-751] (10000 nM) | 12.7 | 6.42 | 23.6 | 6.9 | 32.6 | 20.6 |  |  |  |  |  | 
2 | 213 | Cc1cc(Nc2nc(N[C@@H](C)c3ncc(F)cn3)ncc2Cl)[nH]n1 [AZD1480] |  |  |  |  |  |  | 64.8 | 0 | 0 | 0 | 0 | 
3 |  | Cc1cc(Nc2nc(N[C@@H](C)c3ncc(F)cn3)ncc2Cl)[nH]n1 [AZD1480] (1000 nM) | 100 | 86.3 | 88.4 | 74.7 | 137 | 56.6 |  |  |  |  |  | 
4 |  | CNC(=O)c1ccccc1Sc1ccc2c(/C=C/c3ccccn3)n[nH]c2c1 [Axitinib] (10000 nM) | 42.1 | 37.3 | 67.2 | 21.1 | 67.3 | 46.2 |  |  |  |  |  | 
5 |  | CC(O)(CS(=O)(=O)c1ccc(F)cc1)C(=O)Nc1ccc(C#N)c(C(F)(F)F)c1 (stereo not drawn) [Bicalutamide] |  |  |  |  |  |  |  | 0 | 0 | 0 | 0 | > 10000
6 |  | CC(O)(CS(=O)(=O)c1ccc(F)cc1)C(=O)Nc1ccc(C#N)c(C(F)(F)F)c1 (stereo not drawn) [Bicalutamide] (10000 nM) | 107 | 112 | 102 | 121 | 128 | 100 |  |  |  |  |  | 
7 |  | CCNC(=O)CCC/C=C\C[C@@H]1[C@@H](/C=C/[C@@H](O)CCc2ccccc2)[C@H](O)C[C@@H]1O [Bimatoprost] (5500 nM) | 92.2 | 114 | 92.2 | 107 | 115 | 106 |  |  |  |  |  | 
8 |  | COc1cc(Nc2c(C#N)cnc3cc(OCCCN4CCN(C)CC4)c(OC)cc23)c(Cl)cc1Cl [Bosutinib] (10000 nM) | 9.6 | 11.1 | 12.4 | 4.38 | 4.45 | 4.44 |  |  |  |  |  | 
9 |  | Cn1cc(C2=C(c3cn(C4CCN(Cc5ccccn5)CC4)c4ccccc34)C(=O)NC2=O)c2ccccc21 [Enzastaurin] (10000 nM) | 67.4 | 89.8 | 88.4 | 86 | 78.1 | 51.9 |  |  |  |  |  | 
10 |  | CC(C)(C)NC(=O)[C@H]1CC[C@H]2[C@@H]3CC[C@H]4NC(=O)C=C[C@]4(C)[C@H]3CC[C@]12C [Finasteride] |  |  |  |  |  |  | 8260 | 0 | 0 | 0 | 0 | 
11 |  | CC(C)(C)NC(=O)[C@H]1CC[C@H]2[C@@H]3CC[C@H]4NC(=O)C=C[C@]4(C)[C@H]3CC[C@]12C [Finasteride] (10000 nM) | 36.5 | 33.7 | 51.9 | 0.15 | 135 | 23 |  |  |  |  |  | 
12 |  | Nc1ccn([C@@H]2O[C@H](CO)[C@@H](O)C2(F)F)c(=O)n1 [Gemcitabine] (1000 nM) | 0.25 | 7.26 | 5.03 | 11.2 | 100 | 1.2 |  |  |  |  |  | 
13 |  | CC(C)C[C@H](NC(=O)[C@@H](COC(C)(C)C)NC(=O)[C@H](Cc1ccc(O)cc1)NC(=O)[C@H](CO)NC(=O)[C@H](Cc1c[nH]c2ccccc12)NC(=O)[C@H](Cc1cnc[nH]1)NC(=O)[C@@H]1CCC(=O)N1)C(=O)N[C@@H](CCCNC(=N)N)C(=O)N1CCC[C@H]1C(=O)NNC(N)=O [Goserelin] (10000 nM) | 102 | 109 | 84.9 | 104 | 140 | 89.8 |  |  |  |  |  | 
14 |  | CC(=O)[C@]1(O)Cc2c(O)c3c(c(O)c2[C@@H](O[C@H]2C[C@H](N)[C@H](O)[C@H](C)O2)C1)C(=O)c1ccccc1C3=O [Idarubicin] (1000 nM) | 1.34 | 1.95 | 6.92 | 0.02 | 17 | 11.6 |  |  |  |  |  | 
15 |  | C/C(=C\c1csc(C)n1)[C@@H]1C[C@@H]2O[C@]2(C)CCC[C@H](C)[C@H](O)[C@@H](C)C(=O)C(C)(C)[C@@H](O)CC(=O)N1 [Ixabepilone] (1000 nM) | 20.9 | 57.9 | 36.9 | 21.5 | 37 | 5.47 |  |  |  |  |  | 
